According to patent publication US10441681B2, “Materials and methods for nerve grafting” (University of Florida Research Foundation, Inc., priority 2001, dated 2019):

Legend:
chick DRG neurons = experiment: Cryoculture assay using human nerve segments; type: cell-based; settings: 24 h
Protocol: Cryoculture is a neurite outgrowth assay in which neurons are cultured directly on fresh/frozen nerve sections and was performed as described previously (Ferguson T A et al. [2000] Mol Cell Neurosci, 16:157-167). Briefly, chondroitinase- and vehicle-treated nerve segments were sectioned at 20 μm, mounted on sterile, aminopropyltriethoxysilane (APTS)-coated coverslips and stored at −20° C. until used. Where indicated, sections were treated with chondroitinase ABC (0.1 unit/ml) or vehicle (50 mM Tris-HCl, pH 8.0), containing 50 mM NaCl) for 2 h at 37° C. Purified dorsal root ganglionic (DRG) neurons from day 8 chick embryos were seeded directly on the nerve sections in a defined N2 medium (Bottenstein J E et al. [1980] Exp Cell Res 125:183-190) containing 10 ng/ml nerve growth factor. Cryoculture assays were terminated after 24 h of incubation by fixation with 100% methanol. Neuritic growth by DRG neurons was accessed by GAP-43 immunofluorescent labeling. Epifluorescent photomicrographs were acquired as described for tissue sections. Neurite lengths were measured directly using IMAGE-PRO PLUS software (MEDIA CYBERNETICS, Silver Springs, Md.). At least 250 neurons with neurites greater than one cell body (˜15 μm) were scored for each condition in each experiment.
Many of the experiments described in the examples above performed using rat nerves also have been replicated using human nerve. […]

rat sciatic nerve [1] = experiment: Axonal regeneration after bilateral sciatic nerve crush injury (axonotmesis); type: in vivo; settings: two days after injury, 1 U in 2 μl injected, n=6
Protocol: All surgical procedures were performed according to Institutional Animal Care and Use Committee (IACUC) approved protocols. Young adult SPRAGUE DAWLEY rats (HARLAN Indianapolis, Ind.) were deeply anesthetized with xylazine (15 mg/kg, i.m.) followed by ketamine-HCl (110 mg/kg, i.p.). Six animals received bilateral nerve crush injuries. Sciatic nerves were exposed and then crushed with firm pressure for thirty seconds with a DUMONT #5 forceps at a site 4 mm distal to the tendon of the internal obdurator. The crush site was marked with an epineurial suture. In a separate set of experiments, eight rats received bilateral sciatic nerve transection injuries using serrated scissors. The proximal and distal stumps were […] by epineurial neurorrhaphy using 9-0 ETHILON sutures. Fibrin glue (fibrinogen and thrombin) was then applied to stabilize the union. In both injury models, the right sciatic nerves were injected 2-mm distal to the injury with chondroitinase ABC (1 U in 2 μl) (high-purity, protease-free; SIGMA CHEMICAL CO., St. Louis, Miss.). Left sciatic nerves (with the same injury as the right side) were injected with vehicle alone (0.1% bovine serum albumin in PBS). […]
The hypothesis that chondroitinase treatment improves axonal growth through the site of nerve crush injury was tested. […] Regenerating axons were labeled by GAP-43 immunofluorescence and scored by digital image analysis. […]

rat sciatic nerve [2] = experiment: Human-to-rat acellular nerve xenograft model (GAP-43 axonal profiles); type: in vivo; settings: 8-day acellular human nerve grafts in rat, 2 host rats
Protocol: In the following experiments, the hypothesis that chondroitinase treatment improves nerve regeneration through acellular human nerve grafts in a rat xenograft model was tested. Subunits (individual fascicles) taken from human nerves were treated en bloc with vehicle or chondroitinase ABC. Ten-mm interpositional nerve grafts were joined to the rat host sciatic nerve by epineurial neurorrhaphy reinforced with fibrin glue. Each of 2 host rats received bilateral grafts, one vehicle-treated and one chondroitinase-treated graft. Regeneration was initially examined after 8 days. Axonal growth was assessed at specified spatial intervals within the graft by scoring GAP-43-immunopositive profiles in transverse sections.

## chondroitinase ABC
Chick DRG neurons
  growth-promoting properties of human nerves: increased
Rat sciatic nerve [1]
  axonal regeneration after nerve crush injury (GAP-43 immunoreactivity): no significant difference
Rat sciatic nerve [1]; listed as chondroitinase
  axonal regeneration after nerve crush injury (GAP-43 immunoreactivity): not significantly effected
Rat sciatic nerve [2]
  average number of axons (GAP-43-immunopositive profiles) entering grafts vs control grafts: more than three-fold greater
